Measured values published in patent US9833455B2, “Preparation and methods of use for ortho-aryl 5-membered heteroaryl-carboxamide containing multi-targeted kinase inhibitors” (Spacefill Enterprises LLC, priority 2011, dated 2017).
Like-named read-outs stand apart in the source and are kept apart here.

Legend:
Test in all cases: Reaction Biology P33 radiolabeled kinase assay, IC50 and time dependence
Type in all cases: biochemical
TNK1 = molecular target: T1, TNK1 (Homo sapiens, UniProt Q13470); details: for IC50: ATP 10 uM, read-out: Compound IC50* TNK1
T1 construct: purchased Reaction Biology Inc (contract assay)
T1 sequence (Q13470 1-666): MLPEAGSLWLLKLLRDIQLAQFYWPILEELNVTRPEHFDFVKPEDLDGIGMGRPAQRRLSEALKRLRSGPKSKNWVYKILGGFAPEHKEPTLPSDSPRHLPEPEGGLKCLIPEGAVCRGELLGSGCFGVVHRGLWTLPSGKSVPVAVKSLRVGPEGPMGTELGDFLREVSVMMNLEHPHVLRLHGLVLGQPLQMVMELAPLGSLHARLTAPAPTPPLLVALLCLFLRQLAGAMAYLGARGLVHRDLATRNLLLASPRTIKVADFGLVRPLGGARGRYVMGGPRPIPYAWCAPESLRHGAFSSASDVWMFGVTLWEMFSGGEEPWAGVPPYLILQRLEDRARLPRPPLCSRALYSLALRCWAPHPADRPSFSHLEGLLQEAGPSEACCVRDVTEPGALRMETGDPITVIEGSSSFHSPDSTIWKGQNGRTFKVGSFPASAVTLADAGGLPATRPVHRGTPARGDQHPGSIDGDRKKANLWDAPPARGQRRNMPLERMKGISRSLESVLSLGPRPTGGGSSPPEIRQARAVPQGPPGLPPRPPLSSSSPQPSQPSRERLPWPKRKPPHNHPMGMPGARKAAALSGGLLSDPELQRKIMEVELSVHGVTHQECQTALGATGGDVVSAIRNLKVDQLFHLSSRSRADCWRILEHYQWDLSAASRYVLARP
Method: (§1) “Inhibiting kinase activity” means to decrease the production of an phosphor-peptide by a particular kinase that can be separated by analytical techniques. For example, a comprehensive platform of kinase, protease, phosphatase and epigenetic assays that utilizes cutting-edge microfluidics and informatics tools to provide accurate and rapid results. Profiling data in this application were determined using these techniques at Nanosyn Inc. IC50 data were provided by Reaction Biology Inc using a P33 radiolabeled kinase assay.
(§2) The observation of potency and isoform selectivity with time-dependency for PI3K-γ appears to be unprecedented in the literature. In addition, these activities combined with inhibition of p38-α, Raf-1, DDR and CSF-1R, would be complimentary and potentially synergistic activities for both the treatment of certain inflammation based conditions and cancers.

ROS/ROS1 = molecular target: T2, ROS/ROS1 (Homo sapiens, UniProt P08922); details: for IC50: ATP 10 uM, read-out: Compound IC50* ROS/ROS1
T2 construct: purchased Reaction Biology Inc (contract assay)
Method: as §1, §2

BRAF (V599E) = molecular target: T3, BRAF (V599E) (Homo sapiens, UniProt P15056, V600E); details: for IC50: ATP 10 uM, read-out: Compound IC50* BRAF (V599E)
T3 construct: purchased Reaction Biology Inc (contract assay)
Method: as §1, §2

P38b/MAPK11 = molecular target: T4, P38b/MAPK11 (Homo sapiens, UniProt Q15759); details: for IC50: ATP 10 uM, read-out: Compound IC50* P38b/MAPK11
T4 construct: purchased Reaction Biology Inc (contract assay)
T4 sequence (Q15759 whole entry): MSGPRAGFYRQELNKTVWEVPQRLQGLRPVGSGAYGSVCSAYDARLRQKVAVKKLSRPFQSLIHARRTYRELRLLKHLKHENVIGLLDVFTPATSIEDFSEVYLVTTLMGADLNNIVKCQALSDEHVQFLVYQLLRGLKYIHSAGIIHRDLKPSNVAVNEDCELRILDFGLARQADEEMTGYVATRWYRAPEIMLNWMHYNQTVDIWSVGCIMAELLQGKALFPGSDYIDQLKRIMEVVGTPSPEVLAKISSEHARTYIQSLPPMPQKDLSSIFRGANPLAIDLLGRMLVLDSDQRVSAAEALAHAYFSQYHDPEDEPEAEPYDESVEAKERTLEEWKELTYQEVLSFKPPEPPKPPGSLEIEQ
Method: as §1, §2

PDGFR-α = PDGFR-α (Homo sapiens, UniProt P16234); details: for IC50: ATP 10 uM, read-out: Compound IC50* PDGFR-α
Sequence of PDGFR-α (P16234 24-1089): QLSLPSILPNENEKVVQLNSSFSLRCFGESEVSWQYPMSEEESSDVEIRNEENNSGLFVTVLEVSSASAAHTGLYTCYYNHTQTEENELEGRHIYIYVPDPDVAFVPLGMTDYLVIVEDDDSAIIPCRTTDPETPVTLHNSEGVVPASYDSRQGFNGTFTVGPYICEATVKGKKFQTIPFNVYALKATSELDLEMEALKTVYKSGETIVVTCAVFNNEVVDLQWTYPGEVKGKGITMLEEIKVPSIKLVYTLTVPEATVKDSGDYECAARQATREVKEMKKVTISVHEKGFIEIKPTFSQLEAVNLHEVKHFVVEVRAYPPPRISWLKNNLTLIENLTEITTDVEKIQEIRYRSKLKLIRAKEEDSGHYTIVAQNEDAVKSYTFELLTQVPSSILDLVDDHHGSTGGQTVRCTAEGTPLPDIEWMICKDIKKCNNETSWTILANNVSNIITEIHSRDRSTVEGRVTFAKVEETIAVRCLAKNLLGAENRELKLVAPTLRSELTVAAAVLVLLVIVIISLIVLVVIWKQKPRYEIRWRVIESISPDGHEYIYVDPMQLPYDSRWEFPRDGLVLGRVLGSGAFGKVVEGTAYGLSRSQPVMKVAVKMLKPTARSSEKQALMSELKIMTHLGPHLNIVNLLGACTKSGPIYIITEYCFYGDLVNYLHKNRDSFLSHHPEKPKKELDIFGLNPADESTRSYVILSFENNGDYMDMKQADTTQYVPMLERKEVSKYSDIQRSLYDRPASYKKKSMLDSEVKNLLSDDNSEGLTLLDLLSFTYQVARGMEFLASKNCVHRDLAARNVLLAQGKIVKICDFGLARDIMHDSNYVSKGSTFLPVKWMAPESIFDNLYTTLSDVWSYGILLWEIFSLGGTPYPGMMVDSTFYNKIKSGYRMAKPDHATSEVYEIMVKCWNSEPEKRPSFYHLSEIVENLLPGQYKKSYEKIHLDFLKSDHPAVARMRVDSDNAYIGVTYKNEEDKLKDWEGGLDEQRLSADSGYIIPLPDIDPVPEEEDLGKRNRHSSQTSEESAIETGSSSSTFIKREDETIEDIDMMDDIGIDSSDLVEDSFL
Method: as §1, §2

PI3K-α = PI3K-α (Homo sapiens, UniProt P42336); details: for IC50: ATP 10 uM, read-out: Compound IC50* PI3K-α
Method: as §1, §2

P38a/MAPK14 = molecular target: T5, P38a/MAPK14 (Homo sapiens, UniProt Q16539); details: for IC50: ATP 10 uM, read-out: Compound IC50* P38a/MAPK14
T5 construct: purchased Reaction Biology Inc (contract assay)
T5 sequence (Q16539 whole entry): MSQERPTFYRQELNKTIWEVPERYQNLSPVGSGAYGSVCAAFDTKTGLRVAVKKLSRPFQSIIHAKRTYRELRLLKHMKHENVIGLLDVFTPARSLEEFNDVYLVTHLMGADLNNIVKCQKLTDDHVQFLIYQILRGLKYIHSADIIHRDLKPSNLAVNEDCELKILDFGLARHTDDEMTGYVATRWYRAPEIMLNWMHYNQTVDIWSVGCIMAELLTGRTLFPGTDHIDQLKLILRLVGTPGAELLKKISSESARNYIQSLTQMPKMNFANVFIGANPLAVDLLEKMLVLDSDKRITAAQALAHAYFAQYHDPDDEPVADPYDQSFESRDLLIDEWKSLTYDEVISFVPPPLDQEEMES
Method: as §1, §2

c-Kit = molecular target: T6, c-Kit (Homo sapiens, UniProt P10721); details: for IC50: ATP 10 uM, read-out: Compound IC50* c-Kit
T6 construct: purchased Reaction Biology Inc (contract assay)
T6 sequence (P10721 26-976): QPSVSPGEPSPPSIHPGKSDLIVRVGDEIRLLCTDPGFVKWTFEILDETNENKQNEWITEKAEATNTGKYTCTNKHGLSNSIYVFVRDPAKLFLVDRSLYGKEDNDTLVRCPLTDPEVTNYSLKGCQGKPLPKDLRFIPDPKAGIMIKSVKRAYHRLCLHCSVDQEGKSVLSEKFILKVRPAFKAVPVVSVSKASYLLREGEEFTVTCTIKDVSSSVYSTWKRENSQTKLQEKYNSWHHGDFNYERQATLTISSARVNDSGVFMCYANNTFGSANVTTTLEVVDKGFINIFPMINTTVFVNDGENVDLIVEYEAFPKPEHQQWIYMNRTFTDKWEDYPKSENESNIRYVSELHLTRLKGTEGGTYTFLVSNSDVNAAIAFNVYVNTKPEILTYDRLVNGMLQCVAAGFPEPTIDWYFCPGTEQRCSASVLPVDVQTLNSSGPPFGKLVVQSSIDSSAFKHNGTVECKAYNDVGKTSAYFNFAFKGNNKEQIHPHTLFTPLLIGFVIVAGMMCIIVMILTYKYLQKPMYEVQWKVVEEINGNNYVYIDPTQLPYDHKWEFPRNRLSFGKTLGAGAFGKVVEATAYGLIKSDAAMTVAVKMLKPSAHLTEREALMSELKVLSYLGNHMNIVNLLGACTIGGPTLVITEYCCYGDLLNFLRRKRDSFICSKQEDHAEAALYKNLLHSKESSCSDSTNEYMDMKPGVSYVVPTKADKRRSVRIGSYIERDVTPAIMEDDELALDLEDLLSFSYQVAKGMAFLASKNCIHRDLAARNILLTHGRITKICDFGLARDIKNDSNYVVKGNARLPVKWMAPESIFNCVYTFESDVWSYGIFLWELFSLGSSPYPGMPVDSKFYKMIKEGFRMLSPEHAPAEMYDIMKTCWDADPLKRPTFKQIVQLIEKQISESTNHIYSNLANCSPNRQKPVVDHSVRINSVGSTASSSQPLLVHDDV
Method: as §1, §2

PI3K-γ = molecular target: T7, PI3K-γ (Homo sapiens, UniProt P48736); details: for IC50: ATP 10 uM, read-out: Compound IC50* PI3K-γ
T7 construct: purchased Reaction Biology Inc (contract assay)
T7 sequence (P48736 whole entry): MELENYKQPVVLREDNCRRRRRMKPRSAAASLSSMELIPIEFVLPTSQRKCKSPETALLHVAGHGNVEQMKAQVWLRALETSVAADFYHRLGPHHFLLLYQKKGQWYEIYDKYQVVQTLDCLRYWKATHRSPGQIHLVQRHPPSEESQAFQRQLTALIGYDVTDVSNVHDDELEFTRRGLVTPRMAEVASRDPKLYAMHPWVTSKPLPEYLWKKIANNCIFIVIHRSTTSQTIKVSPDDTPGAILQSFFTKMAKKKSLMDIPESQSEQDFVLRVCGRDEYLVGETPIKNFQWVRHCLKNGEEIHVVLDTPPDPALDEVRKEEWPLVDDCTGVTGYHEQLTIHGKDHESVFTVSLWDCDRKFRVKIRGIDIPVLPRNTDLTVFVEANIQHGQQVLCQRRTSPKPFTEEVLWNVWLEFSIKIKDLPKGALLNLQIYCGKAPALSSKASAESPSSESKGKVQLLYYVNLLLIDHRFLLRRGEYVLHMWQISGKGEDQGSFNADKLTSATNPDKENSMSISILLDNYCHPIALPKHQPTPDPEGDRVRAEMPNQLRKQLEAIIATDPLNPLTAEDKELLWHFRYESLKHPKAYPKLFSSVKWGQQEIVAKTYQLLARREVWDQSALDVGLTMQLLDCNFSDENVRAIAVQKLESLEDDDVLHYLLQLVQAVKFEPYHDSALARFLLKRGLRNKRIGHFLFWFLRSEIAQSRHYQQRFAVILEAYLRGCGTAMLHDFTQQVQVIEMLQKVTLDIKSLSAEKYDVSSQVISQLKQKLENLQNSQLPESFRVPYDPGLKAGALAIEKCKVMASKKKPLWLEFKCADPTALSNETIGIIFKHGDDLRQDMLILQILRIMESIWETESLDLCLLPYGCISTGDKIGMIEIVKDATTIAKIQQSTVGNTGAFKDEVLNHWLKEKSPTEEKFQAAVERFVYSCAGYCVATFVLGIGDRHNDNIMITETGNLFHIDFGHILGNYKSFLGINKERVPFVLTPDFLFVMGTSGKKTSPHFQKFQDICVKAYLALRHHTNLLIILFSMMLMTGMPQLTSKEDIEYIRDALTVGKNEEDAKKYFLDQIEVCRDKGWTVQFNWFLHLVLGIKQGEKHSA
Method: as §1, §2

PDGFR-β = PDGFR-β (Homo sapiens, UniProt P09619); details: for IC50: ATP 10 uM, read-out: Compound IC50* PDGFR-β
Sequence of PDGFR-β (P09619 33-1106): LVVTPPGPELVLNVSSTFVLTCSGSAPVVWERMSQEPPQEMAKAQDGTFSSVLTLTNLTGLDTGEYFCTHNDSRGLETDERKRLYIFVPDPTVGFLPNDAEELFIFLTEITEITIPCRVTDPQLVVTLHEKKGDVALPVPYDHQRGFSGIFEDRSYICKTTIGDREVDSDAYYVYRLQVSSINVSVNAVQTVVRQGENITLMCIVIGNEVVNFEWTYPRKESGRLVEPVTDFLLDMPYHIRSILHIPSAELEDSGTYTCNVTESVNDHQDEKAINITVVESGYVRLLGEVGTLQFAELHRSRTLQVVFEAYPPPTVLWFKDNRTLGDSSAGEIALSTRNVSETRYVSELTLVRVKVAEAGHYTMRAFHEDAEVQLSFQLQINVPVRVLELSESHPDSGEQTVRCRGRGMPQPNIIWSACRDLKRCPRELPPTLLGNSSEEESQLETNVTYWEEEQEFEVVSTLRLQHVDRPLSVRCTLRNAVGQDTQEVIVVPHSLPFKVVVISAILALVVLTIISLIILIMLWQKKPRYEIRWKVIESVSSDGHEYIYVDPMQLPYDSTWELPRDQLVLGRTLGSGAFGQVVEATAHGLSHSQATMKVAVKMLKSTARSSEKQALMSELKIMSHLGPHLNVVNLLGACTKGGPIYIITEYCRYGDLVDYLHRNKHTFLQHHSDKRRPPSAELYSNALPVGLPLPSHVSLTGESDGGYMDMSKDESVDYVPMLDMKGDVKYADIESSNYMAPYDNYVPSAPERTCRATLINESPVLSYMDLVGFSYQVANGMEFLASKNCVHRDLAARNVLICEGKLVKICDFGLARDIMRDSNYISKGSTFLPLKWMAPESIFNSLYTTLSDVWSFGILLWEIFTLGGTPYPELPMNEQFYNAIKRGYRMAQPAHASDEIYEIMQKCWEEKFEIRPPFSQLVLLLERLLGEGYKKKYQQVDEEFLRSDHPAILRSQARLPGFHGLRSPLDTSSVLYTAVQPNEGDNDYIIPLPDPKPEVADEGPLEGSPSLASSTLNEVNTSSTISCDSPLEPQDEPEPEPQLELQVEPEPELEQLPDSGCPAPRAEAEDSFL
Method: as §1, §2

DDR2 = molecular target: T8, DDR2 (Homo sapiens, UniProt Q16832); details: for IC50: ATP 10 uM, read-out: Compound IC50* DDR2
T8 sequence (Q16832 22-855): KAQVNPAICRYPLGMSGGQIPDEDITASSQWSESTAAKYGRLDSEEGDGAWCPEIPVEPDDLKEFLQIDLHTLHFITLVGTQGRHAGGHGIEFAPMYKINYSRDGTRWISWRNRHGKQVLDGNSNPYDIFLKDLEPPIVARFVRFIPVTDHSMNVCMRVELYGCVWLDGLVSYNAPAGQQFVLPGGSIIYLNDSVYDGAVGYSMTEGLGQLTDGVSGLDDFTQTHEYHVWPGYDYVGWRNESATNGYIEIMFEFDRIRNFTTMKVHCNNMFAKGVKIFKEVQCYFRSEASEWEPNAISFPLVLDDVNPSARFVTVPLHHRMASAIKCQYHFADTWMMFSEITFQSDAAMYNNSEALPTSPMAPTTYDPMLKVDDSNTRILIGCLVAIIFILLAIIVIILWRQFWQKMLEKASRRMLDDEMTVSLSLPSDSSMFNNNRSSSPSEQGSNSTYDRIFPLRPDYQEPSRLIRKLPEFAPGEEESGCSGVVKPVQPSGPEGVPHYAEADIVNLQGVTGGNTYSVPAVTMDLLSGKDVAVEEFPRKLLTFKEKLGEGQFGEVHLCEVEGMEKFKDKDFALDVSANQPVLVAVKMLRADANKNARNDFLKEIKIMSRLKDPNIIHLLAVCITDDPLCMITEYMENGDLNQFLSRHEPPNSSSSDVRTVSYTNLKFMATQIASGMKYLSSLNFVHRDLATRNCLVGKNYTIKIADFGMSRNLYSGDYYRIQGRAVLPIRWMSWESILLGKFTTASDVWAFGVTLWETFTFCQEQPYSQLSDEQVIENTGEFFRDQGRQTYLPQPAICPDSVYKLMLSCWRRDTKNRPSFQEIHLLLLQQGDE
Method: as §1, §2

PI3K-β = molecular target: T9, PI3K-β (Homo sapiens, UniProt P42338); details: for IC50: ATP 10 uM, read-out: Compound IC50* PI3K-β
T9 construct: purchased Reaction Biology Inc (contract assay)
Method: as §1, §2

Time Dependence Observed? TNK1 (TNK1; 15 vs 60 Min preincubation): No
IC50 (TNK1; preincubation 15 Min): 210 nM
IC50 (TNK1; preincubation 60 Min): 241 nM
Time Dependence Observed? ROS/ROS1 (ROS/ROS1; 15 vs 60 Min preincubation): No
IC50 (ROS/ROS1; preincubation 15 Min): 1250 nM
IC50 (ROS/ROS1; preincubation 60 Min): 1280 nM
Time Dependence Observed? BRAF (V599E) (BRAF (V599E); 15 vs 60 Min preincubation): No
IC50 (BRAF (V599E); preincubation 15 Min): 194 nM
IC50 (BRAF (V599E); preincubation 60 Min): 194 nM
Time Dependence Observed? P38b/MAPK11 (P38b/MAPK11; 15 vs 60 Min preincubation): No
IC50 (P38b/MAPK11; preincubation 15 Min): 1020 nM
IC50 (P38b/MAPK11; preincubation 60 Min): 1080 nM
Time Dependence Observed? PDGFR-α (PDGFR-α; 15 vs 60 Min preincubation): No
IC50 (PDGFR-α; preincubation 15 Min): 178 nM
IC50 (PDGFR-α; preincubation 60 Min): 342 nM
Time Dependence Observed? PI3K-α (PI3K-α; 15 vs 60 Min preincubation): Yes
IC50 (PI3K-α; preincubation 15 Min): 899 nM
IC50 (PI3K-α; preincubation 60 Min): 387 nM
Time Dependence Observed? P38a/MAPK14 (P38a/MAPK14; 15 vs 60 Min preincubation): No
IC50 (P38a/MAPK14; preincubation 15 Min): 150 nM
IC50 (P38a/MAPK14; preincubation 60 Min): 150 nM
Time Dependence Observed? c-Kit (c-Kit; 15 vs 60 Min preincubation): No
IC50 (c-Kit; preincubation 15 Min): 772 nM
IC50 (c-Kit; preincubation 60 Min): 987 nM
Time Dependence Observed? PI3K-γ (PI3K-γ; 15 vs 60 Min preincubation): Yes
IC50 (PI3K-γ; preincubation 15 Min): 127 nM
IC50 (PI3K-γ; preincubation 60 Min): 57.8 nM
Time Dependence Observed? PDGFR-β (PDGFR-β; 15 vs 60 Min preincubation): No
IC50 (PDGFR-β; preincubation 15 Min): 2010 nM
IC50 (PDGFR-β; preincubation 60 Min): 2510 nM
Time Dependence Observed? DDR2 (DDR2; 15 vs 60 Min preincubation): No
IC50 (DDR2; preincubation 15 Min): 222 nM
IC50 (DDR2; preincubation 60 Min): 221 nM
Time Dependence Observed? PI3K-β (PI3K-β; 15 vs 60 Min preincubation): Yes
IC50 (PI3K-β; preincubation 15 Min): 12600 nM
IC50 (PI3K-β; preincubation 60 Min): 2910 nM
Compound: Cc1ccc(NC(=O)c2nc(S(C)(=O)=O)[nH]c2-c2ccc(F)cc2)cc1Nc1nccc(-c2cccnc2)n1 [Inhibitor I-14, 3-(4-(pyridin-3-yl)-pyrimidinyl-2-yl)amino-4-methyl-analine, 5-(4-Fluorophenyl)-2-(methylsulfonyl)-1H-imidazole-4-carboxamide]
